Reference: PMC11279931, “Development and Evaluation of Docetaxel-Loaded Nanostructured Lipid Carriers for Skin Cancer Therapy” (Pharmaceutics, 2024)
≈ marks a conversion by molar mass, not a printed value.

What was measured:
[1] = Docetaxel equilibrium solubility in molten solid lipids; assay type: physicochemical; details: melted state at 75 °C, 24 h
Procedure: To assess the solubility of the active substance, various solid lipids were examined (such as tetradecanoic acid, decanoic acid, palmitic acid, stearic acid, GMS-SE, GMS, sorbitan monostearate, cetyl palmitate, Gelucire® 43/01, and Suppocire® NAS 50). Initially, 500 mg of each solid lipid was accurately weighed and melted. Subsequently, excess docetaxel was added to the molten lipid. The drug–lipid mixture was kept at a constant temperature of 75 °C, thus maintaining a minimum of 10 °C above the melting point of the solid lipids. The mixture was stirred at 750 rpm for 24 h. Using preheated utensils, a predetermined amount of supernatant was carefully transferred into a 5 mL volumetric flask. The transfer was done by weight to ensure precision and consistency in sample size across all tests. The transferred sample was dissolved using a suitable solvent selected based on its compatibility with both the lipid and docetaxel. Choices like methanol, dichloromethane, DMSO, or their mixtures were used depending on their efficacy in dissolving the sample thoroughly. […]
For the quantitative analysis of docetaxel, a Jasco LC-4000 Series HPLC system (JASCO Corporation, Tokyo, Japan) containing a quaternary pump (model PU-4180), an autosampler (model AS-4150), a DAD detector (model MD-4010), and a column thermostat (model CO-4061) was employed. […]

[2] = Thermogravimetric analysis; assay type: physicochemical; details: TGA, 10 °C/min, nitrogen
Procedure: Thermogravimetric analysis (TGA) was performed for NLC-DTX, NLC-Blank, and their components (DTX, GC, G43/01, MCT, S-PC-3, T80, mannitol) using thermal analyzer TGA Q5000IR (TA Instruments, New Castle, DE, USA). TGA curves were generated with a heating rate of 10 °C/min over a temperature range from room temperature to 700 °C, under a dynamic nitrogen atmosphere (50 mL/min). The samples were placed in a platinum pan (100 µL).

[3] = parameters: method as in PMID 32164731, PMID 25974386; details: cited from earlier work
[4] = parameters: method as in PMID 32164731, PMID 33531521, PMID 31310876, PMID 25974386; details: cited from earlier work
HUVEC normal cells [5] = test: Cell cycle analysis by flow cytometry; assay type: cell-based, human
Procedure: (§1) SK-MEL-24 (human melanoma cell line—HTB-71) and HUVEC (human primary umbilical vein endothelial cells—CRL-1730) were purchased from the American Type Culture Collection (ATCC). HUVEC normal cells were used as a reference. Adherent cells were maintained in culture in DMEM/F12 medium added by 2 mM L-glutamine, 10% fetal bovine serum, 100 units/mL penicillin, 100 μg/mL streptomycin, and incubated at 37 °C in 5% CO2 humidified atmosphere. After 24 h, adherent cells were treated with different concentrations of the compounds for different timeframes. A 5-FU conventional oncology drug used in cancer treatments can be used as a positive control of the experiments. Cell treatments of compounds were carried out using concentrations of 200, 100, 50, 25, 12.5, 6.25, 3.125, and 1.56 μg/mL of the drug. Then, cells were detached with a nonenzymatic PBS/1 mM EDTA solution washed twice in PBS.
(§2) In this experiment, 5 × 10^5 cells that had been previously fixed were washed and resuspended in PBS. The CycleTEST PLUS DNA Reagent kit from BD Biosciences was used according to the manufacturer’s protocol for the assay. The probes were kept in the dark and at 4 °C until data acquisition by flow cytometry (Becton Dickinson—BD) using a FACSCantoII flow cytometer from BD. The ModFIT v3.2 software was used to analyze the data and estimate the DNA index (DI) and progression through cell cycle phases.

SK-MEL-24 tumor cells [6] = test: Cell cycle analysis by flow cytometry; assay type: cell-based, human
Procedure: as §1, §2

HUVEC normal cells [7] = test: Apoptosis, Annexin V-FITC/PI flow cytometry; assay type: cell-based, human; details: 50 μg/mL, 24 h; untreated approximately 7–8%
Procedure: as §1
(§3) The apoptosis assay was performed according to the manufacturer’s instructions using the Annexin V-FITC kit from BD Biosciences. Cells treated and untreated with the experimental compound were resuspended in a cold binding buffer. The percentages of apoptotic cells were determined by double staining with Annexin V-FITC/PI. In each tube was added 400 μL of Annexin V binding buffer and the 5000 cells/sample for 15 min in the dark at room temperature. The cells were analyzed using a FACS CantoII flow-cytometer (Becton Dickinson—BD). The analysis was performed using DIVA 6.2 software to discriminate viable cells (FITC-PI-) from necrotic cells (FITC+PI+) and early apoptosis (FITC+PI-) from late apoptosis.

SK-MEL-24 tumor cells [8] = test: Apoptosis, Annexin V-FITC/PI flow cytometry; assay type: cell-based, human; details: 5 and 50 μg/mL
Procedure: as §1, §3

HUVEC normal cells [9] = test: MTS cytotoxicity assay; assay type: cell-based, human
Procedure: as §1, with “Cell treatments of compounds were carried out using concentrations of 200, 100, 50, 25, 12.5, 6.25, 3.125, and 1.56 μg/mL of the drug. Then, cells were detached with a nonenzymatic PBS/1 mM EDTA solution washed twice in PBS.” left out
All assays were performed in triplicate in 96-well microtiter plates with flat bottom (Falcon), using CellTiter 96 Aqueous One Solution Cell Proliferation Assay (Promega, Madison, WI, USA), an MTS-based colorimetric assay. […] The reduction of the tetrazolium compound to formazan was spectrophotometrically measured at λ = 492 nm using a Dynex plate reader (DYNEX Technologies MRS, Chantilly, VA, USA). The percentage of viability compared to untreated cells (considered 100% viable) was calculated with the formula:(2) Cell viability=absorbance of treated cells−absorbance of culture medium/absorbance of untreated cells−absorbance of culture medium×100 […]

With `CC(=O)O[C@@]12CO[C@@H]1C[C@H](O)[C@@]1(C)C(=O)[C@H](O)C3=C(C)[C@@H](OC(=O)[C@H](O)[C@@H](NC(=O)OC(C)(C)C)c4ccccc4)C[C@@](O)([C@@H](OC(=O)c4ccccc4)[C@H]21)C3(C)C` [DTX, Docetaxel] the “docetaxel solubility in Gelucire 43/01” value [1] was 10 mg/g, the “docetaxel solubility in tetradecanoic acid” value [1] was 16 mg/g and the thermal stability limit [2] was “approximately 120 °C”. For the same molecule, the logp value [3] was 4.1, the water solubility [4] was 4.93 µg/mL (≈ 6.1 µM) and the cell cycle alterations (HUVEC normal cells [5]; 50 μg/mL, 24 h) was “G2/M arrest”. For the same molecule, the cell cycle alterations (HUVEC normal cells [5]; 50 μg/mL, 48 h) was “a decrease in the G1 population, and an increase in the S phase”, the cell cycle alterations (HUVEC normal cells [5]; 24 h, concentration not given) was “a decrease in the S phase accompanied by an increase in the G2 phase” and the cell cycle alterations (HUVEC normal cells [5]; 48 h, independent of the concentration) was “an increase in the S phase and a significant decrease in the G1 phase”. For the same molecule, the cell cycle distribution (SK-MEL-24 tumor cells [6]; 5 μg/mL, 24 h and 48 h) was “decreases the G1 phase and increases the G2 phase”, the cell cycle distribution (SK-MEL-24 tumor cells [6]; 50 μg/mL, 24 h) was “a decrease in the S phase accompanied by an increase in the G2 phase” and the cell cycle distribution (SK-MEL-24 tumor cells [6]; 50 μg/mL, 48 h) was “a significant decrease in the S phase”. The apoptosis (HUVEC normal cells [7]) was 12.3%, the effect on apoptosis (SK-MEL-24 tumor cells [8]; 24 and 48 h, untreated approximately 4–5%) was “sustained increases in apoptosis” and the increase in apoptosis (SK-MEL-24 tumor cells [8]; after 48 h, vs untreated) was “two-fold”. For the same molecule, the IC50 (HUVEC normal cells [9]; Homo sapiens, HUVEC, tested range 1.56–200 μg/mL, read-out: IC50 on HUVECs) was < 1.56 µg/mL and the “cell death (reduction in HUVEC viability)” value (HUVEC normal cells [9]; all tested concentrations (1.56–200 μg/mL), after 24 and 48 h) was “over 50%”.
